Assay results reported in US20110076278A1 (priority 2005, published 2011).
Where two headings read alike, the source gives them in different places.

Experiments:
[1] = tested on: choroidal neovascularization; test: Choroidal neovascularization model with Alzet osmotic pump; format: in vivo; settings: versus vector (vehicle) alone
[2] = tested on: cancer cell lines; test: Proliferation of cancer cell lines; format: cell-based
[3] = Serum concentration in the choroidal neovascularization experiment; format: in vivo; settings: choroidal neovascularization model, Alzet osmotic pump
[4] = cited from earlier work; for max. plasma concentration: in vivo
[5] = tested on: HIF-1α; test: HIF-1α Western blot in ARPE-19 cells under hypoxia; format: cell-based, human
Procedure: Samples were fractionated on 3-8% Tris-Acetate gel (Invitrogen NUPAGE system) by sodium dodecyl sulfate (SDS)-polyacrylamide gel electropherosis and transferred onto nitrocellulose membrane. […] Anti-Beta-actin monoclonal antibody (Abcam, ab6276-100) was used at a 1:5000 dilution with a 30-minute incubation at room temperature.

[6] = tested on: VEGF; test: VEGF ELISA on supernatants of ARPE-19 cells under hypoxia; format: cell-based; settings: Homo sapiens, ARPE-19, hypoxia 24 hours, read-out: IC50 VEGF expression
Procedure: (§1) ARPE-19 was cultured in DMEM/F-12 medium supplemented with 10% heat-inactivated FBS, penicillin (100 U/mL), and streptomycin (100 ug/mL). Cells were grown in incubator with humidified atmosphere containing 5% CO2 at 37° C. To induce hypoxia conditions, cells are placed in a Billups-Rothenberg modular incubator chamber and flushed with artificial atmosphere gas mixture (5% carbon dioxide, 1% oxygen, and balance nitrogen). The hypoxia chamber was then placed in a 37° C. incubator.
(§2) APRE-19 cells were plated in two 96-well plates at a confluence of 80% and cultured overnight. The next day, a series dilution of BNC4 (100, 50, 25, 12.5, 6.25, 3.13, 1.56, 0.78, 0 nM) was added into cultures. […] Supernatants were collected for ELISAs and cells were saved for MTS assay (MTS assay readouts was used in normalizing cell numbers). […] Affection curves (BNC4 on secretion of angiogenesis proteins) and their IC50s were generated by plotting the average normalized absorbance (450 nm minus 540nm) for each treatment on Y axis versus the corresponding BNC4 concentrations on X axis using software XLfit 4.1.
(§3) ELISAs were then performed on the APRE-19 cells treated with BNC4 and incubated under normal or hypoxia conditions as described above. […] Supernatants were collected for ELISAs and cells were saved for MTS assay (MTS assay readouts was used in normalizing cell numbers). […]

[7] = tested on: TIMP-1; test: TIMP-1 ELISA on supernatants of ARPE-19 cells under hypoxia; format: cell-based; settings: Homo sapiens, ARPE-19, hypoxia 24 hours, read-out: IC50 TIMP-1 expression
Procedure: as §1, §2, §3

[8] = tested on: angiogenin; test: Angiogenin ELISA on supernatants of ARPE-19 cells under hypoxia; format: cell-based; settings: Homo sapiens, ARPE-19, hypoxia 24 hours, read-out: IC50 angiogenin expression
Procedure: as §1, §2, §3

Structure (SMILES) | area of choroidal neovascularization [1] | decrease of the concentration effective for inhibiting proliferation of cancer cells by combination ([2]; combination with steroid signal modulator (Casodex)) [fold] | serum concentration [3] [ng/mL] | max. plasma concentration [4] | inhibition of hypoxia-mediated HIF-1α induction ([5]; ARPE-19 cells, hypoxia, western blot (FIG. 1)) | potency relative to BNC1 in inhibiting HIF-1α expression ([5]; human retinal pigment epithelial cells) | IC50 [6] [µM] | IC50 [7] [µM] | IC50 [8] [µM] | decrease of the concentration effective for inhibiting proliferation of cancer cells by combination [2] [fold] | plasma half-life ([4]; human, according to the literature)
C[C@@H]1O[C@@H](O[C@H]2C[C@@H](O)[C@]3(CO)[C@H]4[C@H](O)C[C@]5(C)[C@@H](C6=CC(=O)OC6)CC[C@]5(O)[C@@H]4CC[C@]3(O)C2)[C@H](O)[C@H](O)[C@H]1O [BNC1, ouabain] | reduced the area of choroidal neovascularization | 5 | 20 | about 0.03 μg/mL | – | – | – | – | – | – | –
C[C@@H]1O[C@@H](O[C@@H]2C=C3CC[C@@H]4[C@H](CC[C@]5(C)[C@@H](c6ccc(=O)oc6)CC[C@]45O)[C@@]3(C)CC2)[C@H](O)[C@H](O)[C@H]1O [BNC4, proscillaridin] | reduced the area of choroidal neovascularization | – | 60 | about 0.1 μg/mL | inhibit hypoxia-mediated HIF-1α induction | about 10 times | 0.0325 | 0.0129 | 0.0045 | 5 | about 40 hours
